These results are taken from patent US11685734B2, “ATM kinase inhibitors and compositions and methods of use thereof” (CHDI Foundation, Inc., priority 2019, dated 2023).

One assay concerns the target cellular ATM activity (Homo sapiens (Human), UniProt Q13315). The assay is described as follows: Inhibition of cellular ATM activity: etoposide-stimulated KAP1 phosphorylation in U20S cells. Type of assay: cell-based. The settings on record: 100 μM etoposide, 60 min, read-out: ATM CELL IC50. Here is the method:
Inhibition of cellular ATM activity was determined by changes in etoposide-stimulated KAP1 phosphorylation, based on the work of Guo et al. 2014.
Cryopreserved U20S cells were plated overnight at 6 k cells/well in black walled, clear bottomed 384 well plates (Greiner Bio One 781090). After overnight incubation (37 C, 5% CO2), cells were incubated with titrations of test compounds (0.3% DMSO final) in the presence of 100 μM etoposide (Sigma E1383) to stimulate ATM via induction of double stranded DNA breaks. After 60 min, cells were fixed using 100% cold methanol and incubated at −20° C. for 10 min. Fixed cells were washed with PBS containing 0.05% (v/v) Tween 20 (PBS-T) prior to a 60 minute blocking step in Odyssey blocking buffer (LI-COR Biosciences 92740000). Primary antibodies (1:1000 phosphorylated KAP1: Cell Signalling Technology 4127, 1:5000 total KAP1: Cell Signaling Technology 5868) were diluted in Odyssey blocking buffer and incubated overnight at 4° C., before addition of IRDye(R) conjugated secondary antibodies (LI-COR Biociences 926-32211, LI-COR Biosciences 926-68070) diluted 1:2000 in Odyssey blocking buffer for 60 min at room temperature and detection by LI-COR Odyssey (ImageStudio version 2.1.10, focus offset 4 mm, resolution 169 μm, lowest quality, intensities of 1 and 3 for 700 and 800 channels respectively). Immunoreactivity was quantified and the ratio of phosphorylated KAP1 calculated by dividing by the total KAP1 immunoreactivity. The percentage of inhibition was calculated for each concentration of compound using 100% (100 μM etoposide+30 μM KU-60019) and 0% effect controls (100 μM etoposide+DMSO). IC50 values represent the mean from at least two independent experiments.

Assay [1] has as its target Recombinant, full length human FLAG-tagged ATM (Homo sapiens (Human), UniProt Q13315). Kind of assay: ATM ELISA for p53 S15 phosphorylation. Type of assay: biochemical. The conditions noted are these: 0.75 nM ATM, 25 nM p53, 10 μM ATP, 30 min at 20° C.; read-out: ATM BIO IC50. The procedure:
ATM: Recombinant, full length human FLAG-tagged ATM activity (Eurofins 14-933) was measured in an ELISA for p53 S15 phosphorylation, in a 384 well V-bottom polypropylene plate (Greiner Bio One 781280). Reactions contained 0.75 nM ATM, 25 nM full length myc tagged p53 (Eurofins 23-034), 10 μM UltraPure ATP (Promega V915B) and serial dilutions of inhibitors (0.1% DMSO final) in 25 mM HEPES, pH 7.5. 5 mM MgCl2, 2.5 mM MnCl2, 0.006% Brij-35, 0.5% glycerol, 0.1 mg/ml BSA, 0.5 mM DTT and were allowed to proceed for 30 min at 20° C. 70 mM EDTA final terminated the kinase reactions. An aliquot of the terminated reaction (25 μl) was transferred to a 384-well, high binding microplate (Greiner Bio One 781061), precoated with anti-myc capture antibody overnight (Millipore 05-724) diluted in 1:1000 in PBS, then blocked with Odyssey blocking buffer (LI-COR Biosciences 92740000) for 60 min at 20° C. The terminated reaction was allowed to capture for 2 h at 20° C. Phosphorylation was measured using an antibody specific to p53 S15 phosphorylation (1:5000 Abcam ab38497), anti-rabbit HRP (1:1000 Cell Signalling Technology, 7074) and TMB (ab171522). Antibodies were diluted in Odyssey blocking buffer and incubated for 60 min at 20° C. Three washes with PBS containing 0.05% (v/v) Tween 20 (PBS-T) were performed between each incubation. The TMB reaction was stopped with an equal volume of 0.2 M sulfuric acid and absorbance read at 450 nm on the Perkin Elmer Envision within 30 min of terminating the reaction. […] IC50 values represent the mean from at least two independent experiments.

Recombinant, full length human FLAG-tagged ATM, sequence (Q13315 whole entry): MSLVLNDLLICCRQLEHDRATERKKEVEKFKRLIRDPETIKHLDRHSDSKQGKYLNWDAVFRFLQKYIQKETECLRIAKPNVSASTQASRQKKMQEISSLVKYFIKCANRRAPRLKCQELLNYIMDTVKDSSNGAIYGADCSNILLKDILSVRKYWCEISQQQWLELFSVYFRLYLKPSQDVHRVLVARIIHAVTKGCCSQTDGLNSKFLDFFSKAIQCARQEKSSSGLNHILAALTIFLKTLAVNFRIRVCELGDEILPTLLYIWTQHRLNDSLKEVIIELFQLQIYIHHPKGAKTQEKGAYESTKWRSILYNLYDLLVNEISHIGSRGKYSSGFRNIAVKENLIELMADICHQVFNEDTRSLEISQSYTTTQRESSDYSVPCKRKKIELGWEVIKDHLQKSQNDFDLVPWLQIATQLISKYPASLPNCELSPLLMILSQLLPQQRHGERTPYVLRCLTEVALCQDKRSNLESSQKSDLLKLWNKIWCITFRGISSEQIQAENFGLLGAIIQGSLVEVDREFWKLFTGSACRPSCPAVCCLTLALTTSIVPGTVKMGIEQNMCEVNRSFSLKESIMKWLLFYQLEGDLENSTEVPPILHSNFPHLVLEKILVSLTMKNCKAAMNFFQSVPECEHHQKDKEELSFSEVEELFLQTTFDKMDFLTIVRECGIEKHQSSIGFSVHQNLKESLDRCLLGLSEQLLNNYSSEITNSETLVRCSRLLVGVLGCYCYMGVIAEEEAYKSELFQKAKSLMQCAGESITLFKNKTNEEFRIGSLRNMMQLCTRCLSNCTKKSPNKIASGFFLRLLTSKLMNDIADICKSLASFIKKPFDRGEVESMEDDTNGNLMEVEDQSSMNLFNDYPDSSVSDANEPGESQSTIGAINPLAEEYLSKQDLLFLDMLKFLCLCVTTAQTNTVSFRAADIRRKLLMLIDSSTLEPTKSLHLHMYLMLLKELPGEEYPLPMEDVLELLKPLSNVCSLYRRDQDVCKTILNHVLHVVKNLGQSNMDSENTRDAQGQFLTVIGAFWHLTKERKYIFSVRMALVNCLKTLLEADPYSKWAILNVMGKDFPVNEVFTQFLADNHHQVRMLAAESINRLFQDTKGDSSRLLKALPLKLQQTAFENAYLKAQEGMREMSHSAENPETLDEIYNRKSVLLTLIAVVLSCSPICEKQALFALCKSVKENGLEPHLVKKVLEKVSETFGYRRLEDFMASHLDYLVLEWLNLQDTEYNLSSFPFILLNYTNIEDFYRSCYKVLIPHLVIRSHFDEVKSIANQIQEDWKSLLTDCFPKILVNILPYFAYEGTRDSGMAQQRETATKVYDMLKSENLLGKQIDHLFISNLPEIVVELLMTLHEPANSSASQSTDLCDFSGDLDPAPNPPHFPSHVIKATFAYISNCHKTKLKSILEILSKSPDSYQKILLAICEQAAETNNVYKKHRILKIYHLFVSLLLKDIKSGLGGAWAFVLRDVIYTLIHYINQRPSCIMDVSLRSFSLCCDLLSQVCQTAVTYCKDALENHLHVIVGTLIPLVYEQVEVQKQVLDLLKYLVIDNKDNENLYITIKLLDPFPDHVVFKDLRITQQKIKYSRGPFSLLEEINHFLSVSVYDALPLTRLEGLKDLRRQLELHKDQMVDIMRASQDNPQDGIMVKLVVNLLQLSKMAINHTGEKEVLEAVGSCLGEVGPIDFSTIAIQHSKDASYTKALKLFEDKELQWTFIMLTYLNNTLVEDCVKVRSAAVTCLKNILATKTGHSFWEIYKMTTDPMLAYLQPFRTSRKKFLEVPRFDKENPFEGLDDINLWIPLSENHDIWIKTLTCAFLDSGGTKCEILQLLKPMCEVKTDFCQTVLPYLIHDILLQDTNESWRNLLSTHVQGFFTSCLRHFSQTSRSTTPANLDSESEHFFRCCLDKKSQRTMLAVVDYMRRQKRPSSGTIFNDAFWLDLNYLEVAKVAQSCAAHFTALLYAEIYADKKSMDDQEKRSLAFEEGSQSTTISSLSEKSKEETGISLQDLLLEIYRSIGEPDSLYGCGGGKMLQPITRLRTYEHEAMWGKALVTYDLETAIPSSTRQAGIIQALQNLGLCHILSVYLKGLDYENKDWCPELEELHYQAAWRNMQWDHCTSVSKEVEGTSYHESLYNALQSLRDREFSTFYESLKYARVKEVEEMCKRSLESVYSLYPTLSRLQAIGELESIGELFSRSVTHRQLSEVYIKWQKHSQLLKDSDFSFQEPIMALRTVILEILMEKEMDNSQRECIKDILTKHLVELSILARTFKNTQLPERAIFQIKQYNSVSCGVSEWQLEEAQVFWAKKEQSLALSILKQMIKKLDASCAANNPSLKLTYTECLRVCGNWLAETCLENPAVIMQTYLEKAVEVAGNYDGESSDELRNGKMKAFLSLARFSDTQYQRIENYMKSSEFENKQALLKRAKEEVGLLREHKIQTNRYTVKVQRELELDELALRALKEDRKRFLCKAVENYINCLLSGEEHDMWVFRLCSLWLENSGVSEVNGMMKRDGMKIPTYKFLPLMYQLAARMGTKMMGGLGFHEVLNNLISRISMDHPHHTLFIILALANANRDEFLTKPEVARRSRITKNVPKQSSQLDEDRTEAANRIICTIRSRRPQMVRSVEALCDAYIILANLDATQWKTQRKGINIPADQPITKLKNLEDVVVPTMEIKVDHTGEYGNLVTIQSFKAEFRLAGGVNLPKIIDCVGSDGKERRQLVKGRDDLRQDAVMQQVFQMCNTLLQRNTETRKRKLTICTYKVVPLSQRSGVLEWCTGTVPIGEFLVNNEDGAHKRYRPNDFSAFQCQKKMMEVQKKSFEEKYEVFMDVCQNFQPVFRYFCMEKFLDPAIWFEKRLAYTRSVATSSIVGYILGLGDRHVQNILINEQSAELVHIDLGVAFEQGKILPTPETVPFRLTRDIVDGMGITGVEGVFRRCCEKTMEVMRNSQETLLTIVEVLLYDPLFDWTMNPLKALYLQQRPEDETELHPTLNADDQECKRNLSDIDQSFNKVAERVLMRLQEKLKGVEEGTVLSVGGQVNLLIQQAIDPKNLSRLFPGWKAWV
cellular ATM activity, sequence (Q13315 whole entry): as above

In general, IC50 refers to the concentration needed to halve the response being measured. In the case of `C[C@@H]1CN(c2cc(=O)[nH]c(N3CCC[C@@H]3Cc3ccccc3)n2)CCO1` [Example 271, 2-((R)-2-benzylpyrrolidin-1-yl)-6-((R)-2-methylmorpholino)pyrimidin-4(3H)-one], the values for the IC50 (on cellular ATM activity; in assay [1]) were 2140 nM and 24.1 nM, respectively.

As to `C[C@@H]1CN(c2cc(=O)[nH]c(N3CC[C@@H](F)[C@@H]3Cc3ccccc3)n2)CCO1` [Example 319, 2-((2S,3R)-2-benzyl-3-fluoropyrrolidin-1-yl)-6-((R)-2-methylmorpholino)pyrimidin-4(3H)-one], the half-maximal inhibitory concentration (IC50) amounted to 538 nM on cellular ATM activity and 5.3 nM in assay [1].

On to `C[C@@H]1CN(c2cc(=O)[nH]c(N3C[C@H]4C[C@H]4[C@@H]3Cc3ccccc3)n2)CCO1` [Example 291, 2-((1R,2S,5S)-2-benzyl-3-azabicyclo[3.1.0]hexan-3-yl)-6-((R)-2-methylmorpholino)pyrimidin-4(3H)-one], for which the IC50 at cellular ATM activity amounted to 562 nM; in assay [1] it was 11.1 nM.

Take `C[C@@H]1CN(c2cc(=O)[nH]c(N3CCCCC[C@@H]3Cc3ccsc3)n2)CCO1` [Example 315, 6-((R)-2-methylmorpholino)-2-((R)-2-(thiophen-3-ylmethyl)azepan-1-yl)pyrimidin-4(3H)-one]: the results for the IC50 (at cellular ATM activity; in assay [1]) were 813 nM and 16.4 nM, respectively.

`COc1cccc(C[C@H]2CCCN2c2cc(N3CCOCC3)cc(=O)[nH]2)c1` [Example 22, (R)-6-(2-(3-methoxybenzyl)pyrrolidin-1-yl)-4-morpholinopyridin-2(1H)-one]: the IC50 on cellular ATM activity came to 2680 nM; in assay [1], 55.3 nM.

For `O=c1cc(N2CCOCC2)nc(N2CCCC2Cn2cnc3ccccc32)[nH]1` (stereo not drawn) [Example 192], the IC50 at cellular ATM activity worked out at 1340 nM; in assay [1], 30 nM.

As to `COc1cc(F)ccc1C[C@H]1CCCCCN1c1nc(N2CCOCC2)cc(=O)[nH]1` [Example 228], the IC50 is 756 nM at cellular ATM activity and 69.5 nM in assay [1].

Consider `COc1ccccc1C[C@H]1[C@H]2C[C@H]2CN1c1cc(N2CCOCC2)cc(=O)[nH]1` [Example 128], for which the concentration for half-maximal inhibition (IC50) worked out at 711 nM at cellular ATM activity and 14.7 nM in assay [1].

Consider `C[C@H]1CCCN(c2nc(N3CCO[C@H](C)C3)cc(=O)[nH]2)[C@@H](Cc2ccccc2)C1` [Example 312, 2-((2R,4S)-2-benzyl-4-methylazepan-1-yl)-6-((R)-2-methylmorpholino)pyrimidin-4(3H)-one], for which the IC50 on cellular ATM activity stood at 1740 nM; in assay [1] it was 44.7 nM.

On to `C[C@@H]1CN(c2cc(=O)[nH]c(N3CCCCC[C@@H]3Cc3cccc(F)c3F)n2)CCO1` [Example 300, 2-((R)-2-(2,3-difluorobenzyl)azepan-1-yl)-6-((R)-2-methylmorpholino)pyrimidin-4(3H)-one], for which the IC50 at cellular ATM activity turned out to be 586 nM; in assay [1] it was 93.7 nM.

With `O=c1cc(N2CCOCC2)nc(N2C[C@H]3C[C@H]3[C@@H]2Cc2ccccc2)[nH]1` [Example 213], the IC50 amounted to 134 nM on cellular ATM activity and 1.1 nM in assay [1].

Take `C[C@@H]1CN(c2cc(=O)[nH]c(N3CC[C@@H](C)[C@@H]3Cc3ccccc3)n2)CCO1` [Example 294, 2-((2S,3R)-2-benzyl-3-methylpyrrolidin-1-yl)-6-((R)-2-methylmorpholino)pyrimidin-4(3H)-one]: the half-maximal inhibitory concentration (IC50) on cellular ATM activity amounted to 423 nM; in assay [1], 20.9 nM.

Take `COc1ccc(F)cc1C[C@H]1CCCCCN1c1cc(N2CCOCC2)cc(=O)[nH]1` [Example 86]: the concentration for half-maximal inhibition (IC50) at cellular ATM activity was 1380 nM; in assay [1] it was 65 nM.

Turning to `O=c1cc(N2CCOCC2)nc(N2CC3(CC3)C[C@@H]2Cc2ccccc2)[nH]1` [Example 262, (S)-2-(6-benzyl-5-azaspiro[2.4]heptan-5-yl)-6-morpholinopyrimidin-4(3H)-one], the IC50 at cellular ATM activity amounted to 282 nM; in assay [1], 9.8 nM.

Take `O=c1cc(N2CCOCC2)cc(N2CCCCC[C@@H]2Cc2ccsc2)[nH]1` [Example 64, (R)-4-morpholino-6-(2-(thiophen-3-ylmethyl)azepan-1-yl)pyridin-2(1H)-one]: the IC50 at cellular ATM activity is 933 nM; in assay [1] it was 42.8 nM.
